US20120053196A1, “Combination Treatment of Breast Cancer” (priority 2009, published 2012)

Columns and labels:
ERα+/PR− tumors = settings: follow-up period of 6 years, postmenopausal women; cited from earlier work
[1] = tested on: stage II invasive breast cancer; experiment: Randomized premenopausal cohort: two years of adjuvant tamoxifen vs control, recurrence free survival (Kaplan-Meier, log-rank) by HMGCR IHC status; format: in vivo, human; settings: for outcome of HMGCR positive and ER negative patients vs HMGCR negative and ER positive patients: tamoxifen treated cohort
Text: Between 1984 and 1991, 564 pre-menopausal women with primary breast cancer in the South and Southeast regions of Sweden were enrolled in a multi-centre clinical trial and randomly assigned to either two years of adjuvant tamoxifen (n=276) or a control group (n=288). […] The inclusion criteria were pre-menopausal patients, or patients younger than 50 years, with stage II (pT2 N0 M0, pT1-2 N1 M0) invasive breast cancer treated by modified mastectomy or breast conserving surgery with axillary lymph node dissection. Post-operative radiotherapy (50 Gy) was administered after breastconserving surgery and all lymph node-positive patients received locoregional radiotherapy. […] The study design is described in detail elsewhere (Rydén L et al, Eur J Cancer, 2005, 41(2): 256-64). Ethical permission was obtained from the Local Ethics Committees at Lund and Linköping Universities.
Tissue blocks from 500 of the 564 patients could be retrieved for TMA-construction. All cases had been histopathologically re-evaluated on hematoxylin and eosin stained slides. TMA:s were constructed by sampling 2×0.6 mm cores per case from areas representative of invasive cancer, using an manual arraying device (MTA-1, Beecher Inc, WI, USA). […] IHC staining of ER and PR had been performed previously. In line with current clinical praxis, a cut-off at 10% positive nuclei was used to define hormone receptor positively.
For statistical analyses, the cytoplasmic intensity (CI) level was evaluated, in line with what is described in Examples, Section 3 above. […] Two categories were defined: “HMGCR high” corresponding to CI=weak, moderate and strong and “HMGCR low” corresponding to CI=absent This classification of samples was used for RFS analysis according to the Kaplan-Meier estimator, and the log-rank test was used to compare survival in different strata. ER and PR negativity was defined as<10% positively staining nuclei, according to current clinical guidelines in Sweden. All statistical tests were two-sided, and p-values of<0.05 were considered significant. All calculations were made with the statistical package SPSS 17.0 (SPSS Inc. Illinois, USA).

HMGCR mRNA = experiment: qRT-PCR of HMGCR mRNA levels in MCF7 cells after Simvastatin/Tamoxifen treatment; format: cell-based; settings: five days, 10 μM Simvastatin or 100 nM Tamoxifen, FIG. 15
Procedure: Total RNA was isolated using the mirVANA™ miRNA Isolation Kit (Ambion) and reverse transcribed using SuperScript II™ Reverse Transcriptase (Invitrogen) according to the manufacturer's instructions. […] Relative HMG-CoAR expression levels in breast cancer cell lines were calculated using the qBase real-time PCR relative quantification software with all samples normalized to 18s rRNA. Negative controls included a no template control and a no reverse transcriptase control. All qRT-PCR reactions were performed in triplicate.

HMGCR = settings: MCF7 cells, five days, 10 μM Simvastatin, 100 nM Tamoxifen, or a combination of both, FIG. 14
ERα = settings: MCF7 cells, five days, 10 μM Simvastatin, 100 nM Tamoxifen, or a combination of both, FIG. 14
breast cancer = settings: 5 years tamoxifen compared to no adjuvant treatment; cited from earlier work
[2] = tested on: ERα positive breast cancer; settings: cited from earlier work

For `CC(C)(C#N)c1cc(Cn2cncn2)cc(C(C)(C)C#N)c1` [anastrozole], the “recurrence rate compared to patients treated with tamoxifen” value (ERα+/PR− tumors) is listed as “halved”.
With `CC/C(=C(\c1ccccc1)c1ccc(OCCN(C)C)cc1)c1ccccc1` [tamoxifen] the “effect on RFS based on the HMGCR level” value ([1]; ER negative tamoxifen treated subjects, FIG. 7a) was “positive effect on RFS”, the “RFS, HMGCR high category vs HMGCR low” value ([1]; ER positive tamoxifen treated subjects, FIG. 2a) was “significantly better RFS” and the “effect of tamoxifen treatment on RFS” value ([1]; HMGCR negative and ER negative subjects, FIG. 10b) was “no positive effect”. For the same compound, the “survival upon tamoxifen treatment vs no adjuvant endocrine treatment” value ([1]; HMGCR positive and ER negative subjects, FIG. 9a) was “improved survival”, the “tamoxifen impact on survival (RFS)” value ([1]; HMGCR positive and PR negative subjects, FIG. 12, not statistically significant) was “trend of tamoxifen impact on survival” and the “effect of tamoxifen treatment on RFS” value ([1]; HMGCR positive or ER positive subjects, FIG. 10a) was “significantly positive effect”. For the same compound, the “response to tamoxifen treatment (RFS)” value ([1]; PR negative and HMGCR negative subjects, FIG. 11b) was “no response”, the “response to tamoxifen treatment (RFS)” value ([1]; PR positive and HMGCR positive subjects, FIG. 11a) was “significant response” and the “RFS associated with HMGCR expression” value ([1]; lymph node positive patients who received tamoxifen, FIG. 4a) was “improved RFS”. For the same compound, the “survival of HMGCR positive subjects” value ([1]; node negative subgroups treated with tamoxifen, FIGS. 4b and 5b, too few patients for significance) was “trend of better survival”, the “outcome of HMGCR positive and ER negative patients vs HMGCR negative and ER positive patients” value ([1]; node positive subjects, FIG. 6a) was “better outcome” and the “recurrence free survival (RFS), HMGCR high category vs HMGCR low category” value ([1]; patients treated with adjuvant tamoxifen, FIG. 1a) was “significantly better RFS”. For the same compound, the “survival upon tamoxifen treatment vs no adjuvant endocrine treatment” value ([1]; patients with HMGCR high tumors, irrespective of ER status, FIG. 8a) was “significantly improved survival”, the “survival upon tamoxifen treatment vs no adjuvant endocrine treatment” value ([1]; patients with HMGCR low tumors, irrespective of ER status, FIG. 8b) was “no impact on survival” and the “outcome of HMGCR positive and ER negative patients vs HMGCR negative and ER positive patients” value ([1]; FIG. 3a) was “better outcome”. For the same compound, the “HMGCR levels of mRNA after treatment” value (HMGCR mRNA) was “slight increase”, the “HMGCR expression (Western blot)” value (HMGCR) was “slight HMGCR expression” and the “ERα expression (Western blot)” value (ERα) was “no ERα expression”. The “reduction in breast cancer specific mortality” value (breast cancer) was 34%, the “reduction in disease recurrence” value (breast cancer) was 41% and the “fraction of patients who do not respond to tamoxifen treatment” value [2] was 30-40%.
